For 15 molecules, TGI and GI50 results are on record in PubChem BioAssay (NCI).

Among the test systems are SK-MEL-2 melanoma; DU-145 prostate; LOX IMVI melanoma; IGROV1 ovarian; ACHN renal; SF-295 CNS; HOP-92 NSCLC; OVCAR-5 ovarian; UACC-257 melanoma; CCRF-CEM leukemia.
Test in all cases: NCI-60 cell line screen, 48 h

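Compound exposure: 48 hours, 5 concentrations, 96-well plates. GI50 is the concentration that inhibits growth by half. The concentration for full growth arrest is given as TGI.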

Consider `Cc1ccc2c(sc(-c3ccc4c(c3)sc(-c3ccc5c(c3)sc(-c3ccc(N(C)C)cc3)[n+]5C)[n+]4C)[n+]2C)c1S(=O)(=O)O` (tested in a mixture with another compound), for which the TGI with SK-MEL-2 melanoma, in the assay with DU-145 prostate, in the assay on LOX IMVI melanoma, in the assay on IGROV1 ovarian, in the assay with ACHN renal and in the assay on SF-295 CNS was above 100 µM each time. The TGI with HOP-92 NSCLC, with OVCAR-5 ovarian and in the assay on UACC-257 melanoma was above 100 µM in each case.
Take `c1ccc(P(CCP(c2ccccn2)c2ccccn2)c2ccccc2)cc1`: the TGI in the assay with SK-MEL-2 melanoma was 66.3 µM; with DU-145 prostate, above 100 µM; with LOX IMVI melanoma, above 100 µM; with ACHN renal, above 100 µM; in the assay on SF-295 CNS, above 56.6 µM; with HOP-92 NSCLC, above 69.9 µM. Further, the TGI with OVCAR-5 ovarian and in the assay on UACC-257 melanoma was above 100 µM each time.
On to `CC1(C)CC23CC(C)(C)c4cccc(c42)OCc2ccc4ccc5ccc(nc5c4n2)COc2cccc1c23`, for which the TGI in the assay on SK-MEL-2 melanoma, in the assay with DU-145 prostate, in the assay on LOX IMVI melanoma, with IGROV1 ovarian, in the assay on ACHN renal and in the assay on SF-295 CNS was above 50 µM throughout. The TGI in the assay on HOP-92 NSCLC, in the assay on OVCAR-5 ovarian and with UACC-257 melanoma was above 50 µM each time.
With `Cc1cccc(CC(Cc2c(C)cccc2C(=O)O)C(=O)O)c1` (stereo not given), the TGI in the assay with SK-MEL-2 melanoma, in the assay on CCRF-CEM leukemia, in the assay with DU-145 prostate, in the assay with LOX IMVI melanoma, in the assay on IGROV1 ovarian and in the assay with ACHN renal was above 100 µM in each case. Further, the TGI in the assay on SF-295 CNS, with OVCAR-5 ovarian and in the assay with UACC-257 melanoma was above 100 µM each time.
As to `CC1(C)CC(=O)C2=C(C1)NC1=C(C(=O)CC(C)(C)C1)C2c1ccc([N+](=O)[O-])cc1`, the TGI with SK-MEL-2 melanoma, with DU-145 prostate, in the assay with LOX IMVI melanoma, with IGROV1 ovarian, in the assay on ACHN renal and in the assay on SF-295 CNS was above 100 µM each time. Further, the TGI in the assay with HOP-92 NSCLC, in the assay on OVCAR-5 ovarian and with UACC-257 melanoma was above 100 µM throughout.
Turning to `C/C=C\C(CC(=O)NCCC1CN(S(=O)(=O)C(F)(F)F)c2ccccc21)CC(=O)OC` (stereo not given), the TGI with SK-MEL-2 melanoma was 94 µM; in the assay with CCRF-CEM leukemia, above 100 µM; in the assay with DU-145 prostate, above 100 µM; with IGROV1 ovarian it was above 100 µM; in the assay on ACHN renal it was above 100 µM; with SF-295 CNS it was above 100 µM. Further, the TGI in the assay on HOP-92 NSCLC, with OVCAR-5 ovarian and in the assay with UACC-257 melanoma was above 100 µM throughout.
Regarding `Cc1cc(S(=O)(=O)/N=C(\[N-]S(=O)(=O)c2ccc(Cl)cc2)[n+]2ccc(N(C)C)cc2)c(S)cc1Cl`, the TGI in the assay on SK-MEL-2 melanoma, in the assay with CCRF-CEM leukemia, in the assay on DU-145 prostate, in the assay on LOX IMVI melanoma, in the assay on IGROV1 ovarian and with ACHN renal was above 100 µM throughout. In addition, the TGI with SF-295 CNS, in the assay with OVCAR-5 ovarian and with UACC-257 melanoma was above 100 µM each time.
For the molecule `CCN(CC)C(=S)SS(=O)(=O)c1ccc(Cl)cc1`, the TGI in the assay with SK-MEL-2 melanoma was above 100 µM; with DU-145 prostate it was 82 µM; with LOX IMVI melanoma, 29.2 µM; in the assay with ACHN renal it was above 100 µM; in the assay with SF-295 CNS, above 100 µM; in the assay on HOP-92 NSCLC, 50.4 µM. Further, the TGI with OVCAR-5 ovarian was above 100 µM; with UACC-257 melanoma, 58.8 µM.
As for `COc1cc(/C=C2/SC(c3ccccc3)N(c3ccccc3)C2=O)cc(OC)c1OC` (stereo not given), the TGI in the assay on SK-MEL-2 melanoma was above 100 µM; in the assay on CCRF-CEM leukemia, 42.2 µM; with DU-145 prostate it was above 100 µM; in the assay with LOX IMVI melanoma, above 100 µM; in the assay with ACHN renal, above 100 µM; in the assay with SF-295 CNS, above 100 µM. Further, the TGI with HOP-92 NSCLC, with OVCAR-5 ovarian and in the assay with UACC-257 melanoma was above 100 µM in each case.
`COP(=O)(Cc1ccccc1)Cc1ccccc1`: the TGI with SK-MEL-2 melanoma, in the assay with CCRF-CEM leukemia, in the assay on DU-145 prostate, with LOX IMVI melanoma, in the assay with IGROV1 ovarian and with ACHN renal was above 100 µM throughout. Also, the TGI in the assay on SF-295 CNS, in the assay on OVCAR-5 ovarian and with UACC-257 melanoma was above 100 µM each time.
In the case of `O=C(Nc1nn(C(=O)c2ccc(Cl)cc2)c(=O)s1)c1ccc(Cl)cc1`, the TGI in the assay on CCRF-CEM leukemia, with DU-145 prostate, with LOX IMVI melanoma, in the assay on IGROV1 ovarian, in the assay with ACHN renal and in the assay on SF-295 CNS was above 100 µM each time. Moreover, the TGI in the assay with HOP-92 NSCLC, in the assay with OVCAR-5 ovarian and in the assay with UACC-257 melanoma was above 100 µM in each case.
On to `COC(=O)C1c2c(c3ccccc3n2C(=O)OC)CCN2CCC1C(S(=O)(=O)c1ccccc1)C2=O` (stereo not given), for which the TGI in the assay with SK-MEL-2 melanoma, in the assay on CCRF-CEM leukemia, with DU-145 prostate, with LOX IMVI melanoma, with IGROV1 ovarian and in the assay on SF-295 CNS was above 100 µM throughout. The TGI in the assay on HOP-92 NSCLC, in the assay with OVCAR-5 ovarian and with UACC-257 melanoma was above 100 µM throughout.
For the molecule `C/C(=N\Nc1nc2ccccc2n1C)c1cnccn1`, the TGI in the assay with SK-MEL-2 melanoma is above 100 µM; in the assay with CCRF-CEM leukemia, 6.17 µM; in the assay with DU-145 prostate, above 100 µM; in the assay on LOX IMVI melanoma it was above 20 µM; in the assay with ACHN renal it was above 100 µM; in the assay on SF-295 CNS it was above 100 µM. For the same molecule, the results for the TGI with HOP-92 NSCLC, in the assay on OVCAR-5 ovarian and in the assay on UACC-257 melanoma were 6.83 µM, above 100 µM and above 25 µM, respectively.
Take `Nc1nc(Cl)cc(OCC2(CO)CC(OCc3ccccc3)C2)n1` (stereo not given): the GI50 in the assay on CCRF-CEM leukemia was 41.6 µM; in the assay on DU-145 prostate, 66.3 µM; in the assay on LOX IMVI melanoma, 45.6 µM; in the assay with ACHN renal it was 41.5 µM; with SF-295 CNS, 50.1 µM; with HOP-92 NSCLC it was 49.9 µM. Besides, the GI50 with UACC-257 melanoma is 49.5 µM.
As to `O=C1N2CCc3c([nH]c4ccccc34)C23CC2CCCCC12S3` (stereo not given), the TGI in the assay on DU-145 prostate, with LOX IMVI melanoma, with IGROV1 ovarian, in the assay on ACHN renal, in the assay on SF-295 CNS and in the assay with HOP-92 NSCLC was above 100 µM in each case. For the same molecule, the TGI with OVCAR-5 ovarian was above 100 µM; in the assay on UACC-257 melanoma, 73.1 µM.
